The values that follow come from ChEMBL document CHEMBL1144790, “Prodrugs of phosphates and phosphonates” (J Med Chem, 2008).

Each structure is given as a SMILES string. pIC50: −log10 of the molar value. Where only a bound is given, the exact number is not on record here.

The subject of one data set is Liver. Kind of data set: Metabolic stability in rat liver S9 fraction assessed as esterase conversion rate. The data set is classed as ADME, subcellular.
Data set [1] can be described thus: Aqueous stability assessed as time to reach 90% of starting dose at pH 7. To be noted: buffer.
The nature of data set [2]: Oral bioavailability in rat. To be noted: in vivo. The format is ADME, organism-based.
Data set [3] in a line: Aqueous stability assessed as time to reach 90% of starting dose at pH 7. The data set is classed as physicochemical. To be noted: buffer.
The nature of data set [4]: Aqueous stability assessed as time to reach 90% of starting dose at pH 3.0 to 7.4. The format is physicochemical. To be noted: buffer.
Data set [5] can be described thus: Stability in human gastric juice assessed as half life of hydrolysis. The data set is classed as ADME, tissue-based.
A short description of data set [6]: Stability in human serum assessed as half life of hydrolysis. The data set is classed as ADME, cell-free.
The nature of data set [7]: Chemical stability assessed as half life of hydrolysis in phosphate buffer at pH 8.5. The data set is classed as physicochemical.
Data set [8] can be described thus: Chemical stability assessed as half life of hydrolysis in carbonate buffer at pH 8.5. The format is physicochemical.
The subject of the next data set is Trypanosoma brucei. Kind of data set: Antiparasitic activity against Trypanosoma brucei. The data set is classed as functional, organism-based.
Data set [9] can be described thus: Chemical stability assessed as half life of hydrolysis at acidic pH. The data set is classed as physicochemical.
Data set [10] is described as follows: Chemical stability assessed as half life of hydrolysis at neutral pH. The data set is classed as physicochemical.

Turning to `CCOC(=O)CNP(=O)(NCC(=O)OCC)c1ccc(-c2nc(N)sc2CC(C)C)o1`, the Stability with Liver is 43 nmol/min/mg; in data set [1] it was 36 h.
For `CC(=O)SCCOP(=O)(OCCSC(C)=O)c1ccc(-c2nc(N)sc2CC(C)C)o1`, the Stability with Liver is > 300 nmol/min/mg; in data set [1] it was 8 h.
Regarding `CCOC(=O)[C@H](C)NP(=O)(N[C@@H](C)C(=O)OCC)c1ccc(-c2nc(N)sc2CC(C)C)o1`, the bioavailability (as a rule, the share of a dose that reaches the circulation, judged against a reference dose that is usually intravenous) in data set [2] came out at 22%. Besides, the Stability in data set [3] was > 7 days; in [4] it was > 48 h; in the data set on Liver it was 11 nmol/min/mg.
Regarding `CC(C)(C)C(=O)SCCOP(=O)(COCCn1cnc2c(N)ncnc21)OCCSC(=O)C(C)(C)C`, the values for the half-life in data set [5] and in data set [6] were < 5 min and 4 h, respectively.
For the compound `O=C(O)CCNC(=O)[C@H](Cc1ccc(-c2ccccc2)cc1)NCP(=O)(Oc1ccccc1)Oc1ccccc1`, the half-life – broadly, how long it takes for the measured level to halve – in [7] is > 96 h; in [8] it was 0.5 h.
For `CCOC(=O)[C@H](C)NP(=O)(Oc1ccccc1)c1ccc(-c2nc(N)sc2CC(C)C)o1` (stereo partly specified), the Stability in the data set with Liver was found to be 55 nmol/min/mg; in data set [1], 14 h.
With `CC(C)(C)C(=O)SCCOP(=O)(OCCSC(=O)C(C)(C)C)Oc1ccc(O)c(C(=O)O)c1`, the pIC50 (as a rule, the IC50 on a negative log10 scale, so that one unit is a factor of ten) with Trypanosoma brucei is 4.70.
On to `CC(=O)Oc1ccc(COP(=O)(OCc2ccc(OC(C)=O)cc2)c2ccc(-c3nc(N)sc3CC(C)C)o2)cc1`, for which the Stability in [4] was < 4 h; with Liver, > 300 nmol/min/mg.
`CC(C)(C)C(=O)OCOP(=O)(OCOC(=O)C(C)(C)C)OC[C@H]1O[C@@H](n2cc(F)c(=O)[nH]c2=O)C[C@@H]1O`: the half-life in data set [9] and in data set [10] was > 40 h in each case.
`CC(C)Cc1sc(N)nc1-c1ccc(P(=O)(OCOC(=O)C(C)(C)C)OCOC(=O)C(C)(C)C)o1`: the values for the Stability (in the data set with Liver; in data set [1]) were > 300 nmol/min/mg and < 4 h, respectively.
